Assay results taken from the supplement of paper PMC10627819.

Key:
B. subtilis 168 [1] = assay: fitness (endpoint OD595 vs no drug) (fraction); higher = more growth
How it was run: (§1)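 With the first reading as background, OD595 was measured every 30 min for 14 h in 384-well plates kept at 37 °C and inoculated at OD595 0.01. TSB, LB Lennox or CY was the medium. Fitness is the optical density at the transition into stationary phase divided by the robust mean of no-drug control wells, with a cap of 1.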

S. aureus DSM 20231 [2] = assay: as above
How it was run: as §1

B. subtilis 168 [3] = assay: Bliss interaction score (quartile over a dose matrix) (fitness difference); higher = more antagonism (negative = synergy)
How it was run: (§2)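 Each plate was normalised to the robust mean of its own no-drug wells, using OD595 at entry into stationary phase, with values capped at 1. This normalised growth is the fitness value. The Bliss score is the difference between observed and product-expected fitness, with single-drug fitness inferred from the combination data and quartiles taken over technical, biological and donor/recipient replicates.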

S. pneumoniae D39V = assay: as above
How it was run: as §2

S. aureus DSM 20231 [4] = assay: as above
How it was run: as §2

S. aureus Newman = assay: as above
How it was run: as §2
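Wherever Bliss interaction score (quartile over a dose matrix) is given: first quartile when negative (synergy) and third quartile when positive (antagonism).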

COc1c(N2C[C@@H]3CCCN[C@@H]3C2)c(F)cc2c(=O)c(C(=O)O)cn(C3CC3)c12 [Moxifloxacin] + COc1cc(Cc2cnc(N)nc2N)cc(OC)c1OC [Trimethoprim]
fitness (B. subtilis 168 [1]; first compound 0.0312 µg/mL, partner 0.1 µg/mL, one replicate): 0.0166 | fitness (B. subtilis 168 [1]; first compound 0.0312 µg/mL, partner 0.125 µg/mL): 0.0627 | fitness (B. subtilis 168 [1]; first compound 0.0312 µg/mL, partner 0.2 µg/mL, one replicate): 0.0497 | fitness (B. subtilis 168 [1]; first compound 0.0312 µg/mL, partner 0.25 µg/mL): 0.103 | fitness (B. subtilis 168 [1]; first compound 0.0312 µg/mL, partner 0.4 µg/mL, one replicate): 0.0325 | fitness (B. subtilis 168 [1]; first compound 0.0312 µg/mL, partner 0.5 µg/mL): 0.0656 | fitness (B. subtilis 168 [1]; first compound 0.0625 µg/mL, partner 0.1 µg/mL, one replicate): 0.0397 | fitness (B. subtilis 168 [1]; first compound 0.0625 µg/mL, partner 0.125 µg/mL): 0.0366 | fitness (B. subtilis 168 [1]; first compound 0.0625 µg/mL, partner 0.2 µg/mL, one replicate): 0.0393 | fitness (B. subtilis 168 [1]; first compound 0.0625 µg/mL, partner 0.25 µg/mL): 0.0436 | fitness (B. subtilis 168 [1]; first compound 0.0625 µg/mL, partner 0.4 µg/mL, one replicate): 0.011 | fitness (B. subtilis 168 [1]; first compound 0.0625 µg/mL, partner 0.5 µg/mL): 0.0539 | fitness (B. subtilis 168 [1]; first compound 0.125 µg/mL, partner 0.1 µg/mL, one replicate): 0.0162 | fitness (B. subtilis 168 [1]; first compound 0.125 µg/mL, partner 0.125 µg/mL): 0.0399 | fitness (B. subtilis 168 [1]; first compound 0.125 µg/mL, partner 0.2 µg/mL, one replicate): 0.0361 | fitness (B. subtilis 168 [1]; first compound 0.125 µg/mL, partner 0.25 µg/mL): 0.0294 | fitness (B. subtilis 168 [1]; first compound 0.125 µg/mL, partner 0.4 µg/mL, one replicate): 0.0203 | fitness (B. subtilis 168 [1]; first compound 0.125 µg/mL, partner 0.5 µg/mL): 0.0335 | fitness (B. subtilis 168 [1]; first compound 2 µg/mL, partner 0.5 µg/mL): 0.0293 | fitness (B. subtilis 168 [1]; first compound 2 µg/mL, partner 1 µg/mL, one replicate): 0.0073 | fitness (B. subtilis 168 [1]; first compound 2 µg/mL, partner 2 µg/mL, one replicate): 0.0287 | fitness (B. subtilis 168 [1]; first compound 4 µg/mL, partner 0.5 µg/mL): 0.0245 | fitness (B. subtilis 168 [1]; first compound 4 µg/mL, partner 1 µg/mL, one replicate): 0.0329 | fitness (B. subtilis 168 [1]; first compound 4 µg/mL, partner 2 µg/mL, one replicate): 0.0297 | fitness (B. subtilis 168 [1]; first compound 8 µg/mL, partner 0.5 µg/mL): 0.0127 | fitness (B. subtilis 168 [1]; first compound 8 µg/mL, partner 1 µg/mL, one replicate): 0.0126 | fitness (B. subtilis 168 [1]; first compound 8 µg/mL, partner 2 µg/mL, one replicate): 0.0291 | fitness (S. aureus DSM 20231 [2]; first compound 0.0075 µg/mL, partner 0.125 µg/mL, one replicate): 0.719 | fitness (S. aureus DSM 20231 [2]; first compound 0.0075 µg/mL, partner 0.25 µg/mL): 0.559 | fitness (S. aureus DSM 20231 [2]; first compound 0.0075 µg/mL, partner 0.5 µg/mL): 0.0549 | fitness (S. aureus DSM 20231 [2]; first compound 0.0075 µg/mL, partner 1 µg/mL): 0.0253 | fitness (S. aureus DSM 20231 [2]; first compound 0.015 µg/mL, partner 0.125 µg/mL, one replicate): 0.627 | fitness (S. aureus DSM 20231 [2]; first compound 0.015 µg/mL, partner 0.25 µg/mL): 0.525 | fitness (S. aureus DSM 20231 [2]; first compound 0.015 µg/mL, partner 0.5 µg/mL): 0.0366 | fitness (S. aureus DSM 20231 [2]; first compound 0.015 µg/mL, partner 1 µg/mL): 0.0226 | fitness (S. aureus DSM 20231 [2]; first compound 0.03 µg/mL, partner 0.125 µg/mL): 0.552 | fitness (S. aureus DSM 20231 [2]; first compound 0.03 µg/mL, partner 0.25 µg/mL): 0.376 | fitness (S. aureus DSM 20231 [2]; first compound 0.03 µg/mL, partner 0.5 µg/mL): 0.041 | fitness (S. aureus DSM 20231 [2]; first compound 0.03 µg/mL, partner 1 µg/mL): 0.0152 | fitness (S. aureus DSM 20231 [2]; first compound 0.06 µg/mL, partner 0.125 µg/mL, one replicate): 0.653 | fitness (S. aureus DSM 20231 [2]; first compound 0.06 µg/mL, partner 0.25 µg/mL, one replicate): 0.44 | fitness (S. aureus DSM 20231 [2]; first compound 0.06 µg/mL, partner 0.5 µg/mL, one replicate): 0.191 | fitness (S. aureus DSM 20231 [2]; first compound 0.12 µg/mL, partner 0.125 µg/mL, one replicate): 0.343 | fitness (S. aureus DSM 20231 [2]; first compound 0.12 µg/mL, partner 0.25 µg/mL, one replicate): 0.139 | fitness (S. aureus DSM 20231 [2]; first compound 0.12 µg/mL, partner 0.5 µg/mL, one replicate): 0.0509 | Bliss interaction score (B. subtilis 168 [3]): 0.0283 | Bliss interaction score (S. pneumoniae D39V): 0.0963 | Bliss interaction score (S. aureus DSM 20231 [4]): -0.0854 | Bliss interaction score (S. aureus Newman): -0.193

CCCCCCCCCC(=O)N[C@H]1[C@H](Oc2c3cc4cc2Oc2ccc(cc2Cl)[C@@H](O[C@@H]2O[C@H](CO)[C@@H](O)[C@H](O)[C@H]2NC(C)=O)[C@@H]2NC(=O)[C@H](NC(=O)[C@@H]4NC(=O)[C@H]4NC(=O)[C@@H](Cc5ccc(c(Cl)c5)O3)NC(=O)[C@H](N)c3ccc(O)c(c3)Oc3cc(O)cc4c3)c3ccc(O)c(c3)-c3c(O[C@H]4O[C@H](CO)[C@@H](O)[C@H](O)[C@@H]4O)cc(O)cc3[C@@H](C(=O)O)NC2=O)O[C@H](CO)[C@@H](O)[C@@H]1O [Teicoplanin] + COc1cc(Cc2cnc(N)nc2N)cc(OC)c1OC [Trimethoprim]
fitness (S. aureus DSM 20231 [2]; first compound 0.1562 µg/mL, partner 0.125 µg/mL, main component drawn): 0.733 | fitness (S. aureus DSM 20231 [2]; first compound 0.1562 µg/mL, partner 0.25 µg/mL, main component drawn): 0.591 | fitness (S. aureus DSM 20231 [2]; first compound 0.1562 µg/mL, partner 0.5 µg/mL, main component drawn): 0.0778 | fitness (S. aureus DSM 20231 [2]; first compound 0.1562 µg/mL, partner 1 µg/mL, main component drawn): 0.0229 | fitness (S. aureus DSM 20231 [2]; first compound 0.3125 µg/mL, partner 0.125 µg/mL, main component drawn): 0.798 | fitness (S. aureus DSM 20231 [2]; first compound 0.3125 µg/mL, partner 0.25 µg/mL, main component drawn): 0.61 | fitness (S. aureus DSM 20231 [2]; first compound 0.3125 µg/mL, partner 0.5 µg/mL, main component drawn): 0.0585 | fitness (S. aureus DSM 20231 [2]; first compound 0.3125 µg/mL, partner 1 µg/mL, main component drawn): 0.0126 | fitness (S. aureus DSM 20231 [2]; first compound 0.625 µg/mL, partner 0.125 µg/mL, main component drawn): 0.708 | fitness (S. aureus DSM 20231 [2]; first compound 0.625 µg/mL, partner 0.5 µg/mL, main component drawn): 0.0794 | fitness (S. aureus DSM 20231 [2]; first compound 0.625 µg/mL, partner 1 µg/mL, main component drawn): 0.0061 | Bliss interaction score (B. subtilis 168 [3]; main component drawn): -0.0836 | Bliss interaction score (S. pneumoniae D39V; main component drawn): -0.0668 | Bliss interaction score (S. aureus DSM 20231 [4]; main component drawn): -0.167 | Bliss interaction score (S. aureus Newman; main component drawn): -0.249
